Laboratory results as given in ChEMBL document CHEMBL1649274, “Mutational upregulation of a resistance-nodulation-cell division-type multidrug efflux pump, SdeAB, upon exposure to a biocide, cetylpyridinium chloride, and antibiotic resistance in Serratia marcescens” (Antimicrob Agents Chemother, 2009).
≈ marks a conversion by molar mass, not a printed value.

Key:
[1] = test system: Serratia marcescens; test: Antimicrobial activity against cetylpyridinium chloride-resistant Serratia marcescens 01 by broth dilution method; format: functional
[2] = test system: Serratia marcescens; test: Antimicrobial activity against cetylpyridinium chloride-sensitive Serratia marcescens 79 by broth dilution method; format: functional
[3] = test system: Serratia marcescens; test: microbe, parasite or virus in culture; format: functional; settings: ATCC 13880
Description: (§1) Antimicrobial activity against Serratia marcescens ATCC 13880 by broth dilution method

[4] = test system: Serratia marcescens; test: Antimicrobial activity against cetylpyridinium chloride-sensitive Serratia marcescens 71 by broth dilution method; format: functional
[5] = test system: Serratia marcescens; test: Antimicrobial activity against cetylpyridinium chloride-resistant Serratia marcescens 011 harboring plasmid STV28 expressing sdeB gene by broth dilution method; format: functional
[6] = test system: Serratia marcescens; test: Antimicrobial activity against cetylpyridinium chloride-resistant Serratia marcescens HMS011 by broth dilution method; format: functional
[7] = test system: Serratia marcescens; test: Antimicrobial activity against cetylpyridinium chloride-sensitive Serratia marcescens 79 harboring plasmid STV29 by broth dilution method; format: functional
[8] = test system: Serratia marcescens; test: Antimicrobial activity against cetylpyridinium chloride-sensitive Serratia marcescens 71 harboring plasmid STV29 by broth dilution method; format: functional
[9] = test system: Serratia marcescens; test: Antimicrobial activity against cetylpyridinium chloride-resistant Serratia marcescens 01 harboring plasmid STV29 by broth dilution method; format: functional
[10] = test system: Serratia marcescens; test: Antimicrobial activity against Serratia marcescens ATCC 13880 harboring plasmid STV29 by broth dilution method; format: functional
[11] = test system: Serratia marcescens; test: Antimicrobial activity against cetylpyridinium chloride-resistant Serratia marcescens HMS011 harboring plasmid STV28 expressing sdeB gene by broth dilution method; format: functional
[12] = test system: Serratia marcescens; test: Antimicrobial activity against cetylpyridinium chloride-sensitive Serratia marcescens 71 harboring plasmid STV29 expressing hasF gene by broth dilution method; format: functional
[13] = test system: Serratia marcescens; test: Antimicrobial activity against cetylpyridinium chloride-resistant Serratia marcescens 011 by broth dilution method; format: functional
[14] = test system: Serratia marcescens; test: Antimicrobial activity against cetylpyridinium chloride-sensitive Serratia marcescens 79 harboring plasmid STV29 expressing hasF gene by broth dilution method; format: functional
[15] = test system: Serratia marcescens; settings: 01
[16] = test system: Serratia marcescens; settings: ATCC 13880
Description: as §1

[17] = test system: Serratia marcescens; settings: 79
[18] = test system: Serratia marcescens; settings: 71

Row | Compound | MIC [1] | MIC [2] | MIC [3] | MIC [4] | MIC [5] | MIC [6] | MIC [7] | MIC [8] | MIC [9] | MIC [10] | MIC [11] | MIC [12] | MIC [13] | MIC [14] | MIC [15] | MIC [16] | MIC [17] | MIC [18]
1 | N=C(NCCCCCCNC(=N)NC(=N)Nc1ccc(Cl)cc1)NC(=N)Nc1ccc(Cl)cc1.O=C(O)[C@H](O)[C@@H](O)[C@H](O)[C@H](O)CO | 100 µg/mL | 3.13 µg/mL | 25 µg/mL | 3.13 µg/mL |  |  |  |  |  |  |  |  |  |  |  |  |  | 
2 | CCn1cc(C(=O)O)c(=O)c2ccc(C)nc21 [NALIDIXIC ACID] | 12.5 µg/mL (≈ 53.8 µM) | 12.5 µg/mL (≈ 53.8 µM) | 12.5 µg/mL (≈ 53.8 µM) | 12.5 µg/mL (≈ 53.8 µM) |  |  |  |  |  |  |  |  |  |  |  |  |  | 
3 | CCn1cc(C(=O)O)c(=O)c2cc(F)c(N3CCNCC3)nc21 [ENOXACIN] | 3.13 µg/mL (≈ 9.77 µM) | 0.1 µg/mL (≈ 0.312 µM) | 0.2 µg/mL (≈ 0.624 µM) | 0.1 µg/mL (≈ 0.312 µM) |  |  |  |  |  |  |  |  |  |  |  |  |  | 
4 | CC1(C)S[C@@H]2[C@H](NC(=O)C(C(=O)O)c3ccccc3)C(=O)N2[C@H]1C(=O)O (stereo partly drawn) [CARBENICILLIN] | 3.13 µg/mL (≈ 8.27 µM) | 3.13 µg/mL (≈ 8.27 µM) | 6.25 µg/mL (≈ 16.5 µM) | 3.13 µg/mL (≈ 8.27 µM) | 3.13 µg/mL (≈ 8.27 µM) | 6.25 µg/mL (≈ 16.5 µM) | 3.13 µg/mL (≈ 8.27 µM) | 3.13 µg/mL (≈ 8.27 µM) | 3.13 µg/mL (≈ 8.27 µM) | 6.25 µg/mL (≈ 16.5 µM) | 6.25 µg/mL (≈ 16.5 µM) | 3.13 µg/mL (≈ 8.27 µM) | 3.13 µg/mL (≈ 8.27 µM) | 3.13 µg/mL (≈ 8.27 µM) |  |  |  | 
5 | CN(C)[C@@H]1C(O)=C(C(N)=O)C(=O)[C@@]2(O)C(O)=C3C(=O)c4c(O)cccc4[C@@](C)(O)[C@H]3C[C@@H]12 [TETRACYCLINE] | 100 µg/mL (≈ 225 µM) | 3.13 µg/mL (≈ 7.04 µM) | 50 µg/mL (≈ 113 µM) | 3.13 µg/mL (≈ 7.04 µM) | 100 µg/mL (≈ 225 µM) | 50 µg/mL (≈ 113 µM) | 3.13 µg/mL (≈ 7.04 µM) | 3.13 µg/mL (≈ 7.04 µM) | 100 µg/mL (≈ 225 µM) | 50 µg/mL (≈ 113 µM) | 50 µg/mL (≈ 113 µM) | 50 µg/mL (≈ 113 µM) | 100 µg/mL (≈ 225 µM) | 50 µg/mL (≈ 113 µM) |  |  |  | 
6 | CCn1cc(C(=O)O)c(=O)c2cnc(N3CCNCC3)nc21 [PIPEMIDIC ACID] | 25 µg/mL (≈ 82.4 µM) | 0.78 µg/mL (≈ 2.57 µM) | 3.13 µg/mL (≈ 10.3 µM) | 0.78 µg/mL (≈ 2.57 µM) | 25 µg/mL (≈ 82.4 µM) | 3.13 µg/mL (≈ 10.3 µM) | 0.78 µg/mL (≈ 2.57 µM) | 0.78 µg/mL (≈ 2.57 µM) | 25 µg/mL (≈ 82.4 µM) | 3.13 µg/mL (≈ 10.3 µM) | 3.13 µg/mL (≈ 10.3 µM) | 12.5 µg/mL (≈ 41.2 µM) | 6.25 µg/mL (≈ 20.6 µM) | 12.5 µg/mL (≈ 41.2 µM) |  |  |  | 
7 | GENTAMICIN |  |  |  |  |  |  |  |  |  |  |  |  |  |  | 1.56 µg/mL | 1.56 µg/mL | 1.56 µg/mL | 1.56 µg/mL
